Results: patent US8327467B2, “Anthranilic acid derivative or salt thereof” (Toyama Chemical Co., Ltd., priority 2005, dated 2012)
Structures can show the parent of a compound that is named as a salt.

Key:
[1] = tested on: type II collagen-induced arthritis; assay: Type II collagen-induced arthritis in mice; type: in vivo; details: male DBA/1 J mice, 10 mg/kg orally once a day from the 21st day to the 35th day
Method: Type II Collagen-Induced Arthritis in Mice
Eight-week old male DBA/1 J mice were used (Charles River Laboratories Japan Inc.). 4 mg/mL bovine type II collagen (Collagen Gijutsu Kenshukai) dissolved in 0.01 mol/L of acetic acid aqueous solution and an equal amount of Freund's complete adjuvant (Chondorex) containing 1 mg/mL of killed tuberculosis bacillus were added to prepare an emulsion, and 0.1 mL thereof was intradermally injected at the base of tail. Similar treatment was conducted on the 21st day to cause arthritis. The test compound was suspended in 0.5% methylcellulose aqueous solution, and 10 mg/kg was orally administered once a day from the 21st day to the 35th day. In the control group,0.5% methylcellulose aqueous solution was administered in the same manner. The severity of arthritis was estimated by scoring at zero point for an animal without change; one point for an animal with swelling at the one or two finger joint or light swelling only at the carpal or tarsal joint; two points for an animal with severe swelling at the carpal or tarsal joint or with swelling at three or more finger joints; three points for an animal with severe swelling along the whole foreleg or hindleg and thus counting 12 points at the maximum for the four limbs as arthritis score. […] The inhibitory rate was determined by the following expression. […]

MMP-13 = MMP-13 production inhibition test; type: cell-based; details: 30 μmol/L; human cartilage derived cell line SW1353, IL-1β 10 ng/mL, 16 hours after stimulation, MMP-13 in culture supernatant by ELISA; read-out: Inhibition rate (%) at 30 μmol/L
Method: MMP-13 Production Inhibition Test
6.8×10^3 human cartilage derived cell line SW1353 cells were suspended in 100 μL of Dulbecco modified Eagle's medium supplemented with 10% fetal calf serum, plated on 96-well plates and cultured for 3 days. After the culture medium was changed to Dulbecco modified Eagle's medium containing 0.2% lactalbumin hydrolysate and the cells were cultured for 6 hours, test compounds were added and then IL-1β was added to obtain the final concentration of 10 ng/mL 1 hour later. 16 hours after the stimulation, supernatant was collected and the amount of MMP-13 in the culture supernatant was determined with an ELISA kit (Amersham). The inhibition rate was calculated from the amount of MMP-13 in the presence of a test compound assuming that the amount of MMP-13 was 100% in the absence of the test compound.

Structure (SMILES)	inhibitory action on arthritis (arthritis score) [1]	inhibitory action on bone destruction (bone destruction score, X-ray on the 36th day) [1]	inhibition at 30 µM (MMP-13)
O=C(O)c1ccc(CCc2ccccc2)cc1Nc1ccc(F)cc1 [Example 38, 2-(4-Fluoroanilino)-4-phenethylbenzoic acid]	exhibited inhibitory action	exhibited inhibitory action	97%
COc1ccc(CCc2ccc(C(=O)O)c(Nc3ccc(F)cc3)c2)cc1 [Example 160, 2-(4-Fluoroanilino)-4-(2-(4-methoxyphenyl)ethyl)benzoic acid]	–	–	93%
O=C(O)c1ccc(Oc2ccccc2)cc1NCc1ccc(F)cc1 [Example 49, 2-(4-Fluorobenzylamino)-4-phenoxybenzoic acid]	–	–	85%
O=C(O)c1ccc(-n2cnc3ccccc32)cc1Nc1ccc(F)cc1 [Example 248, 4-(1H-benzimidazol-1-yl)-2-(4-fluoroanilino)benzoic acid trifluoroacetate]	–	–	84%
COc1ccc(-c2ccc(C(=O)O)c(Nc3ccc(F)cc3)c2)cc1OC [Example 209, 4-(3,4-Dimethoxyphenyl)-2-(4-fluoroanilino)benzoic acid]	–	–	82%
CS(=O)(=O)c1ccc(-c2ccc(C(=O)O)c(Nc3ccc(F)cc3)c2)cc1 [Example 11, 2-(4-fluoroanilino)-4-(4-(methanesulfonyl)phenyl)benzoic acid]	–	–	62%
O=C(O)c1ccc(-c2ccc3c(c2)OCO3)cc1Nc1ccc(F)cc1 [Example 7, 4-(Benzo-1,3-dioxol-5-yl)-2-(4-fluoroanilino)benzoic acid]	–	–	95%
O=C(O)c1ccc(CCc2ccccc2)cc1Nc1ccc2[nH]ccc2c1 [Example 331, 2-((1H-Indol-5-yl)amino)-4-phenethylbenzoic acid]	–	–	97%
Cc1ccccc1Nc1cc(-c2ccc(NS(C)(=O)=O)cc2)ccc1C(=O)O [Example 273, 4-(4-(methanesulfonamido)phenyl)-2-(2-methylanilino)benzoic acid]	–	–	83%
O=C(O)c1ccc(-c2ccc(OC(F)(F)F)cc2)cc1Nc1ccc(F)cc1 [Example 222, 2-(4-Fluoroanilino)-4-(4-(trifluoromethoxy)phenyl)benzoic acid]	–	–	98%
O=C(O)c1ccc(-c2ccccc2OC(F)(F)F)cc1Nc1ccc(F)cc1 [Example 220, 2-(4-Fluoroanilino)-4-(2-(trifluoromethoxy)phenyl)benzoic acid]	–	–	98%
O=C(O)c1ccc(Oc2ccccc2)cc1NC1CCCCC1 [Example 48, 2-(cyclohexylamino)-4-phenoxybenzoic acid]	–	–	85%
COc1ccccc1Nc1cc(CCc2ccccc2)ccc1C(=O)O [Example 181, 2-(2-Methoxyanilino)-4-phenethylbenzoic acid]	–	–	97%
O=C(O)c1ccc(CCc2ccccc2)cc1Nc1cccc(-n2cccn2)c1 [Example 362, 4-Phenethyl-2-(3-(1H-pyrazol-1-yl)phenylamino)benzoic acid]	–	–	97%
